{"source": "patent USRE50642E1", "about": "“Anti-androgens for the treatment of non-metastatic castrate-resistant prostate cancer” (Aragon Pharmaceuticals, Inc., priority 2012, dated 2025)", "key": {"[1]": {"system": "male humans with non-metastatic castration-resistant prostate cancer", "experiment": "Phase II clinical trial in non-metastatic castration-resistant prostate cancer, PSA decline from baseline", "type": "in vivo, human", "details": "240 mg orally, continuous daily dosing schedule"}, "[2]": {"system": "non-castrate hormone-sensitive and bicalutamide-resistant human prostate cancer xenograft models", "details": "non-castrate hormone-sensitive and bicalutamide-resistant xenografts; Clegg et al. Cancer Res 2012; cited from earlier work"}, "T877A AR mutant": {"molecular_target": "T1, T877A AR mutant (Homo sapiens, UniProt P10275, T878A)", "T1 sequence (P10275 1-920 T878A)": "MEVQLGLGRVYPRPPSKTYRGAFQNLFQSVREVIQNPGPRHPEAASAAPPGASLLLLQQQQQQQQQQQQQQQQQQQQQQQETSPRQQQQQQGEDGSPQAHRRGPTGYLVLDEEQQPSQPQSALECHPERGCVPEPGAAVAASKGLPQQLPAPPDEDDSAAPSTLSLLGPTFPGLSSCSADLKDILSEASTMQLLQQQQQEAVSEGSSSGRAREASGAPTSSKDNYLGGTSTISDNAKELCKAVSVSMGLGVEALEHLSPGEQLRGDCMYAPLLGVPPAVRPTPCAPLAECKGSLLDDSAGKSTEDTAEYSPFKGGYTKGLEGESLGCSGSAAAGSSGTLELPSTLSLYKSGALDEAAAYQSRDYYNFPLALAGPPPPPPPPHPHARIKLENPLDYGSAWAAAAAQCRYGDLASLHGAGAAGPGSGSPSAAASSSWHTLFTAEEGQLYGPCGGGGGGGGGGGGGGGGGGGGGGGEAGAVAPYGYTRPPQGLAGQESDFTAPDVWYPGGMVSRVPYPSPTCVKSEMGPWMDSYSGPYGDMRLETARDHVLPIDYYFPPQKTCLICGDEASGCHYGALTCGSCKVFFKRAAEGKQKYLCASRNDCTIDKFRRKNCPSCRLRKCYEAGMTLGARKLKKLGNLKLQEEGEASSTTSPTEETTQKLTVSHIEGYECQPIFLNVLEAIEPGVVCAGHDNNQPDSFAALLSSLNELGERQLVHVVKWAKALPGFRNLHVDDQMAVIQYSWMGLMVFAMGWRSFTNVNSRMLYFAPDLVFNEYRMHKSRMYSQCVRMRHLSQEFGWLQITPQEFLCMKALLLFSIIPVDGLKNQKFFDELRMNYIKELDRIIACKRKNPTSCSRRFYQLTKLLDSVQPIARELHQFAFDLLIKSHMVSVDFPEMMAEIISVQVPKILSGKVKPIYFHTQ", "details": "cited from earlier work"}}}
{"smiles": "CNC(=O)c1ccc(N2C(=S)N(c3cnc(C#N)c(C(F)(F)F)c3)C(=O)C23CCC3)cc1F", "note": "[4-[7-(6-cyano-5-trifluoromethylpyridin-3-yl)-8-oxo-6-thioxo-5,7-diazaspiro[3.4]oct-5-yl]-2-fluoro-N-methylbenzamide]", "values": [{"measurement": "PSA50 (≥50% decline in PSA from baseline), share of males", "setting": "[1]; at 3 months", "result": 91, "unit": "%"}, {"measurement": "PSA90 (≥90% decline in PSA from baseline), share of males", "setting": "[1]; at 3 months", "result": 38, "unit": "%"}, {"measurement": "PSA50 (≥50% decline in PSA from baseline), share of males", "setting": "[1]; at 6 months", "result": 91, "unit": "%"}, {"measurement": "PSA90 (≥90% decline in PSA from baseline), share of males", "setting": "[1]; at 6 months", "result": 55, "unit": "%"}, {"measurement": "tumor regression", "setting": "[2]", "result": "partial or complete tumor regression"}]}
{"smiles": "CC(C)(O)C(=O)Nc1ccc([N+](=O)[O-])c(C(F)(F)F)c1", "note": "[hydroxyflutamide]", "values": [{"measurement": "activity in T877A AR mutant", "setting": "T877A AR mutant", "result": "act as AR agonists"}]}
